Bounds are passed on as bounds.

Assay [1] deals with human Cav3.1 Cav3.2 or Cav3.3 channel. Briefly: In vitro assay T channel (FLIPR calcium fluorescence). In kind it is cell-based. As to conditions: HEK293 cells expressing human Cav3.1, Cav3.2 or Cav3.3; 10 mM Ca2+-induced fluo-4 fluorescence; determined up to 10 μM; read-out: T channel antagonistic activity IC50. In outline:
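HEK293 cells stably expressing human Cav3.1, Cav3.2 or Cav3.3 loaded with fluo-4 AM (3 μM), preincubated 3 min with antagonist, then stimulated with 10 mM Ca2+ in TEA-chloride/HEPES buffer pH 7.2. FLIPR fluorescence read every 2 s for 8 min; IC50 from peak area versus vehicle, tested up to 10 μM.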

The subject of assay [2] is isolated mouse hearts. Briefly: Effect on isolated hearts according to the Langendorff method (Lgdff). The procedure: Effect on Isolated Hearts According to the Langendorff Method (Lgdff)
The compounds were tested for their potential to reduce blood pressure and their effect on the contractility of the heart muscle. EC50 values on isolated mouse hearts were determined according to Literature (Doring H J., The isolated perfused heart according to Langendorff technique—function—application, Physiol. Bohemoslov. 1990, 39(6), 481-504; Kligfield P, Horner H, Brachfeld N., A model of graded ischemia in the isolated perfused rat heart, J. Appl. Physiol. 1976 June, 40(6), 1004-8).
51 example compounds have been measured using the procedure described above for the Langendorff experiment. The measured EC50 values were in the range of 4 to 669 nM with an average of 37 nM.

In assay [3] the target is T1, human Cav1.2 channel (Homo sapiens, UniProt Q13936).
T1 construct: expressed in transfected cells; host or cells: HEK293
Briefly: In vitro assay L channel (FLIPR calcium fluorescence). In kind it is cell-based. As to conditions: HEK293 cells expressing human Cav1.2 with β-2a and α2δ-1; 20 mM KCl-induced fluo-4 fluorescence; determined up to 10 μM; read-out: L channel antagonistic activity (IC50). The procedure: The L channel antagonistic activity (IC50 values) of the compounds of formula (I) is determined in accordance with the following experimental method.
Human embryonic kidney (HEK293) cells expressing the human Cav1.2 channel in addition to the auxiliary subunits β-2a and α2δ-1, are grown in culture medium (DMEM containing 10% heat-inactivated fetal calf serum (FCS), 100 U/ml penicillin, 100 μg/ml streptomycin, 100 μg/ml G418, 40 μg/ml zeocin and 100 μg/ml hygromycin). The cells are seeded at 20.000 cells/well into 384-well black clear bottom sterile plates (poly-L-lysine-coated, Becton Dickinson). The seeded plates are incubated overnight at 37° C. in 5% CO2. The KCl solution is prepared as 80 mM stock solution in assay buffer (HBSS containing 0.1% BSA, 20 mM HEPES, 0.375 g/l NaHCO3, adjusted to pH 7.4 with NaOH) for use in the assay at a final concentration of 20 mM. Antagonists are prepared as 10 mM stock solutions in DMSO, then diluted in 384 w plates first in DMSO, then in assay buffer to obtain 3× stocks. On the day of the assay, 25 μl of staining buffer (HBSS containing 20 mM HEPES, 0.375 g/l NaHCO3, and 3 μM of the fluorescent calcium indicator fluo-4 AM (1 mM stock solution in DMSO, containing 10% pluronic) is added to each well of the seeded plate. The 384-well cell-plates are incubated for 60 min at 37° C. in 5% CO2 followed by washing with 2×50 μl per well using assay buffer leaving 50 μl/well of this buffer for equilibration at room temperature (30-60 min). Within the Fluorescent Imaging Plate Reader (FLIPR, Molecular Devices), antagonists are added to the plate in a volume of 25 μl/well, incubated for 3 min and finally 25 μl/well of KCl solution is added for cellular depolarization. Fluorescence is measured for each well at 2 second intervals for 8 minutes, and the area under the curve of each fluorescence peak is compared to the area of the fluorescence peak induced by 20 mM KCl with vehicle in place of antagonist. […]

T1 sequence (Q13936 whole entry): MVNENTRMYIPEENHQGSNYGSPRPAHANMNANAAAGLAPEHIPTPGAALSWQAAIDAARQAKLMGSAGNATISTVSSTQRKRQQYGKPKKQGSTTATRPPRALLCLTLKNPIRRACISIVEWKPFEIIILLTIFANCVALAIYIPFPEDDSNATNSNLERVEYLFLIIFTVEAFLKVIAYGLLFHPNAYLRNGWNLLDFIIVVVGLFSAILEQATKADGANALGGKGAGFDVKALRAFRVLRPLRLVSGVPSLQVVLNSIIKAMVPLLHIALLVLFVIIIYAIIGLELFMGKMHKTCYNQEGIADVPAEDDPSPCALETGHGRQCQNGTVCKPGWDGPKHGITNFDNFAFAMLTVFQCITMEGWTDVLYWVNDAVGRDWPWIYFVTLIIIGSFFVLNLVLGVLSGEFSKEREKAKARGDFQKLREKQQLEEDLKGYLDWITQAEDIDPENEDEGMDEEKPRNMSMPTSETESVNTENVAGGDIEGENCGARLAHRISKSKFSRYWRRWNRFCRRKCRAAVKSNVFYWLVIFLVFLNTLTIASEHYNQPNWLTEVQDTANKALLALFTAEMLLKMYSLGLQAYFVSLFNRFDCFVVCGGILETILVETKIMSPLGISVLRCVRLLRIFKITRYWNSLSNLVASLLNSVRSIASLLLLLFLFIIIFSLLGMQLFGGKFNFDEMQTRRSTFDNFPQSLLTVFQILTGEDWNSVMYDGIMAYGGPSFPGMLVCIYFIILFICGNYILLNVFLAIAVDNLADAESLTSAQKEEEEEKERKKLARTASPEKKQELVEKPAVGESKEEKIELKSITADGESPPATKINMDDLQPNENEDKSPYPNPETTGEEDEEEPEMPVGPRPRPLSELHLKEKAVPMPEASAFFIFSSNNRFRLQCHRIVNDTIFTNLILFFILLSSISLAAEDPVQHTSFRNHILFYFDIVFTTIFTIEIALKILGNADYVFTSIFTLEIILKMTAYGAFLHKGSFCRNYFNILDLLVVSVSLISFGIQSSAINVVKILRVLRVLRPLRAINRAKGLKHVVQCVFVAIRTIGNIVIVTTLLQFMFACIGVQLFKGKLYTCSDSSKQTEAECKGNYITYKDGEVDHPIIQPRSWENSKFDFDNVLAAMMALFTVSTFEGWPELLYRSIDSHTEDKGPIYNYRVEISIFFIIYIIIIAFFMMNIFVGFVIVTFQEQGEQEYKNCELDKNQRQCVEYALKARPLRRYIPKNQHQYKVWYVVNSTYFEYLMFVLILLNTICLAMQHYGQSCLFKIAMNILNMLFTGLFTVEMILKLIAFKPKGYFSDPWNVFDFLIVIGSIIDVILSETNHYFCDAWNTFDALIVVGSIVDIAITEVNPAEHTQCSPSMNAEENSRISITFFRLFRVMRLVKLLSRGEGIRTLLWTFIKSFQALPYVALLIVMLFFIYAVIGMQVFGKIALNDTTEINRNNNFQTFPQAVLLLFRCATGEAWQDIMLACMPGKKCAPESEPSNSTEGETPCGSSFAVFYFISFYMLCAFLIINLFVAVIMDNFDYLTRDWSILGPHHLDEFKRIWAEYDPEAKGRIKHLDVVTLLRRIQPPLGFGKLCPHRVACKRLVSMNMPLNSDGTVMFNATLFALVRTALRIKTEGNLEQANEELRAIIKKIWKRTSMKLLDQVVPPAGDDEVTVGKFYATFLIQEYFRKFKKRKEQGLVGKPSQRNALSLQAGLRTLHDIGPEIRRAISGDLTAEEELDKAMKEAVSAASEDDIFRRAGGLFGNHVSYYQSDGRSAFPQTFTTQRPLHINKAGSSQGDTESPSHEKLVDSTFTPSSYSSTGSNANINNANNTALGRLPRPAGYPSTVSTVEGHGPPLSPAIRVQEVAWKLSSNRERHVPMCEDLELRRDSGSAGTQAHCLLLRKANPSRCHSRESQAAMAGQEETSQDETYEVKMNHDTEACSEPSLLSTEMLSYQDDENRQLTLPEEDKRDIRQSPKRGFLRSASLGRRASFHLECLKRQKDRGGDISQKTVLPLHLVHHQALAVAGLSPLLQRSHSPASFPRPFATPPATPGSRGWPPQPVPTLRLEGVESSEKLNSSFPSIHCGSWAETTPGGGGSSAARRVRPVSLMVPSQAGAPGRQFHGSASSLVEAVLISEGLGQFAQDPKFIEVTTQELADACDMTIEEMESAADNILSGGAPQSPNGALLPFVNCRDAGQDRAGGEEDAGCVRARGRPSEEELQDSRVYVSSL

For orientation: IC50 means the concentration that inhibits the measured activity by half. A word on the EC50: it is the concentration at which the effect is half-maximal. A high value points to weaker potency. In the case of `CC(C)C(=O)O[C@@]1(CCN(C)CCCc2nc3ccccc3[nH]2)C[C@H]2CC[C@@H]1C=C2c1cccs1` (relative stereo) [Example 21A, rac-Isobutyric acid (1R*,2R*,4R*)-2-(2-{[3-(1H-benzoimidazol-2-yl)-propyl]-methyl-amino}-ethyl)-5-thiophen-2-yl-bicyclo[2.2.2]oct-5-en-2-yl ester], the IC50 in assay [1] was 2420 nM. This molecule yielded an EC50 in assay [2] of 10 nM.

As for `COc1ccc(OC)c2[nH]c(CCCN(C)CC[C@]3(OC(=O)C(C)C)C[C@H]4CC[C@@H]3C=C4c3ccccc3)nc12` (relative stereo) [Example 61A, rac-Isobutyric acid (1R*,2R*,4R*)-2-(2-{[3-(4,7-dimethoxy-1H-benzoimidazol-2-yl)-propyl]-methyl-amino}-ethyl)-5-phenyl-bicyclo[2.2.2]oct-5-en-2-yl ester], the IC50 in assay [1] amounted to 571 nM. In assay [2], this molecule registered a 50% effective concentration (EC50) of 5 nM.

Turning to `CC(C)C(=O)O[C@@]1(CCN(C)CCCc2cccnc2)C[C@H]2CC[C@@H]1C=C2c1ccccc1` (relative stereo) [Example 46A, rac-Isobutyric acid (1R*,2R*,4R*)-2-{2-[methyl-(3-pyridin-3-yl-propyl)-amino]-ethyl}-5-phenyl-bicyclo[2.2.2]oct-5-en-2-yl ester], in assay [1], the half-inhibitory concentration (IC50) is 2560 nM. This molecule also displayed an EC50 in assay [2] of 9 nM.

As for `CN(CCCc1nc2ccccc2[nH]1)CC[C@]1(O)C[C@H]2CC[C@@H]1C=C2c1ncco1` (racemic) [Example 25, rac-(1R*,2R*,4R*)-2-(2-{[3-(1H-Benzoimidazol-2-yl)-propyl]-methyl-amino}-ethyl)-5-oxazol-2-yl-bicyclo[2.2.2]oct-5-en-2-ol], the IC50 in assay [3] and in assay [1] was greater than 10000 nM in each case.

For the molecule `CC(C)C(=O)O[C@@]1(CCN(C)CCCc2nc3ccccc3[nH]2)C[C@H]2CC[C@@H]1C=C2c1ccc2ccccc2c1` (racemic) [Example 10A, rac-Isobutyric acid (1R*,2R*,4R*)-2-(2-{[3-(1H-benzoimidazol-2-yl)-propyl]-methyl-amino}-ethyl)-5-naphthalen-2-yl-bicyclo[2.2.2]oct-5-en-2-yl ester], the IC50 in assay [3] and in assay [1] was greater than 10000 nM each time. This molecule displayed an EC50 in assay [2] of 13 nM.

In the case of `CN(CCCc1nc2ccccc2[nH]1)CC[C@]1(O)C[C@@H]2C=C[C@H]1CC2` (racemic) [Example 75, rac-(1R*,2R*,4R*)-2-(2-{[3-(1H-Benzoimidazol-2-yl)-propyl]-methyl-amino}-ethyl)-bicyclo[2.2.2]oct-5-en-2-ol], the IC50 in assay [3] and in assay [1] was greater than 10000 nM each time.

`CC1=C(c2ccccc2)[C@H]2CC[C@@H]1C[C@]2(CCN(C)CCCc1nc2ccccc2[nH]1)OC(=O)C(C)C` (relative stereo) [Example 17A, rac-Isobutyric acid (1R*,2R*,4R*)-2-(2-{[3-(1H-benzoimidazol-2-yl)-propyl]-methyl-amino}-ethyl)-5-methyl-6-phenyl-bicyclo[2.2.2]oct-5-en-2-yl ester]: in assay [1], the IC50 is 1370 nM. This molecule also had an EC50 in assay [2] of 12 nM.

Regarding `COc1cccc(C2=C[C@H]3CC[C@@H]2C[C@]3(CCN(C)CCCc2nc3ccccc3[nH]2)OC(=O)C(C)C)c1` (relative stereo) [Example 2A, rac-Isobutyric acid (1R*,2R*,4R*)-2-(2-{[3-(1H-benzoimidazol-2-yl)-propyl]-methyl-amino}-ethyl)-5-(3-methoxy-phenyl)-bicyclo[2.2.2]oct-5-en-2-yl ester], the IC50 in assay [1] was 2310 nM. The molecule also had a half-maximal effective concentration (EC50) in assay [2] of 15 nM.

`CC(C)C(=O)O[C@@]1(CCN(C)CCCc2nc3ccccc3[nH]2)C[C@H]2CC[C@@H]1C[C@]21OCc2ccccc21` (relative stereo) [Example 80A, rac-Isobutyric acid (1R*,2S*,4R*,5R*)-5-(2-{[3-(1H-benzoimidazol-2-yl)-propyl]-methyl-amino}-ethyl)-3′H-spiro(bicyclo[2.2.2]octane-2,1′-isobenzofuran)-5-yl ester]: the half-maximal inhibitory concentration (IC50) in assay [1] was 4180 nM.

`CO[C@@]1(c2ccccc2)C[C@H]2CC[C@@H]1C[C@@]2(O)CCN(C)CCCc1nc2ccccc2[nH]1` (relative stereo) [Example 78, rac-(1R*,2R*,4R*,5S*)-2-(2-{[3-(1H-Benzoimidazol-2-yl)-propyl]-methyl-amino}-ethyl)-5-methoxy-5-phenyl-bicyclo[2.2.2]octan-2-ol]: the IC50 in assay [1] is greater than 10000 nM.

Regarding `COc1ccc(OC)c2[nH]c(CCCN(C)CC[C@]3(OC(=O)C(C)C)C[C@H]4CCC[C@@H]3C=C4c3ccccc3)nc12` (relative stereo) [Example 69A, rac-Isobutyric acid (1R*,5R*,6R*)-6-(2-{[3-(4,7-dimethoxy-1H-benzoimidazol-2-yl)-propyl]-methyl-amino}-ethyl)-8-phenyl-bicyclo[3.2.2]non-8-en-6-yl ester], the IC50 in assay [1] amounted to 727 nM.

As for `COC(=O)c1ccc2[nH]c(CCCN(C)CC[C@]3(OC(=O)C(C)C)C[C@H]4CC[C@@H]3C=C4c3ccccc3)nc2c1` (relative stereo) [Example 20A, rac-2-(3-{[2-((1R*,2R*,4R*)-2-Isobutyryloxy-5-phenyl-bicyclo[2.2.2]oct-5-en-2-yl)-ethyl]-methyl-amino}-propyl)-1H-benzoimidazole-5-carboxylic acid methyl ester], the IC50 in assay [1] was 4570 nM.

In the case of `COc1ccc(Cl)c2[nH]c(CCCN(C)CC[C@]3(OC(=O)C(C)C)C[C@H]4CC[C@@H]3C=C4c3ccccc3)nc12` (relative stereo) [Example 58A, rac-Isobutyric acid (1R*,2R*,4R*)-2-(2-{[3-(7-chloro-4-methoxy-1H-benzoimidazol-2-yl)-propyl]-methyl-amino}-ethyl)-5-phenyl-bicyclo[2.2.2]oct-5-en-2-yl ester], in assay [1], the IC50 was found to be 762 nM.

Take `COCCOc1cccc2[nH]c(CCCN(C)CC[C@]3(OC(=O)C(C)C)C[C@H]4CC[C@@H]3C=C4c3ccccc3)nc12` (relative stereo) [Example 63A, rac-Isobutyric acid (1R*,2R*,4R*)-2-[2-({3-[4-(2-methoxy-ethoxy)-1H-benzoimidazol-2-yl]-propyl}-methyl-amino)-ethyl]-5-phenyl-bicyclo[2.2.2]oct-5-en-2-yl ester]: the IC50 in assay [1] amounted to 1440 nM.

As for `COc1cccc2[nH]c(CCCN(C)CC[C@]3(OC(=O)CC(F)(F)F)C[C@H]4CC[C@@H]3C=C4c3ccccc3)nc12` (relative stereo) [Example 26C, rac-3,3,3-Trifluoro-propionic acid (1R*,2R*,4R*)-2-(2-{[3-(4-methoxy-1H-benzoimidazol-2-yl)-propyl]-methyl-amino}-ethyl)-5-phenyl-bicyclo[2.2.2]oct-5-en-2-yl ester], the IC50 in assay [1] turned out to be 4640 nM. Also, in assay [2], the EC50 worked out at 4 nM.

In the case of `COc1cccc2[nH]c(CCCN(C)CC[C@]3(O)C[C@H]4CCC[C@@H]3C=C4c3ccccc3)nc12` (relative stereo) [Example 36, rac-(1R*,5R*,6R*)-6-(2-{[3-(4-Methoxy-1H-benzoimidazol-2-yl)-propyl]-methyl-amino}-ethyl)-8-phenyl-bicyclo[3.2.2]non-8-en-6-ol], the IC50 in assay [1] was 1330 nM.

For the origin of these results see patent US8202885B2, “Bridged six-membered ring compounds” (Actelion Pharmaceuticals Ltd., priority 2007, dated 2012).
